Experimental data reported in publication PMC7764601 (Molecules, 2020).
Where “and” joins values, the source holds several entries; their conditions need not be identical. Equal values may be shown once. Marks after values point to notes of the source that are not given here.

Tests used:
Format in all cases: in vivo
mice [1] = experiment: Spontaneous locomotor activity in mice (photoresistor actometers); conditions: for ED50: confidence limits in parentheses, read-out: ED50 (mg/kg) ± SEM, spontaneous locomotor activity; for Number of impulses ± SEM (30min): i.p.
Procedure: (§1) The experiments were carried out on male albino Swiss mice (body weight 18–26 g). All of the animals were housed at constant humidity (60%) and temperature (25 °C) and kept on a 12 h light/dark cycle. Animals were fed a standard pellet diet with free access to tap water. All procedures were conducted according to Animal Care and Use Committee guidelines, and approved by the Ethical Committee of Jagiellonian University, Kraków.
(§2) Control and experimental groups consisted of 6–8 animals each. The investigated compounds were administered intraperitoneally as a suspension in 0.5% methylcellulose in a constant volume of 10 mL/kg.
Spontaneous locomotor activity in mice was measured in circular photoresistoractometers (32 cm in diameter). […] Thirty minutes after the injection of the investigated compounds, mice were placed in the actometers for 30 min. Each crossing of the light beam was recorded automatically. The amount of impulses was noted after 30 min.

mice [2] = experiment: in vivo; conditions: ED50 of the writhing test (Table 3) relative to LD50 i.p.
Procedure: as §1, §2

in vivo = conditions: male, albino Swiss, mouse, in vivo, ip; mice, intraperitoneal, mortality after 24 h; confidence limits in parentheses
Procedure: as §1, §2

mice [3] = experiment: “Writhing” test in mice (phenylbenzoquinone); conditions: for ED50: Mus musculus, ip, read-out: ED50 (mg/kg) ± SEM, writhing test; for ED50 / ED50 (mg/kg) ± SEM, writhing test: confidence limits in parentheses; for ED50 (mg/kg) ± SEM, writhing test / Mean no. of writhing ± SEM: i.p.
Procedure: as §1, §2
(§3) The statistical significance was calculated using a Student’s t-test. The ED50 values and their confidence limits were calculated according to the method of Litchfield and Wilcoxon.
(§4) Pain reactivity was measured in two tests: “hot plate” test (according to the method of Eddy and Leimbach) and “writhing” test in mice (according to Hendershot and Forsaith).
Then, after 25 min, the irritant (phenylbenzoquinone, 0.02% solution, ethanol-water, 5:95) was also administered intraperitoneally in a constant volume of 0.25 mL. Five min after the application of the irritant,a 10 min long period of observation started, in which the number of writhing episodes was counted.
The analgesic effect of individual doses was expressed in percent:(1) % Analgesic effect=100−∑ of writing incidents in experimental group/∑ of writhing incidents in control group×100

mice [4] = experiment: Thiopental anesthesia (thiopental-induced sleep); conditions: for Prolongation (%) of thiopental anesthesia / Duration of Anesthesia ± SEM: i.p.; for effect on duration of thiopental anesthesia (in words): mouse, in vivo; for Duration of Anesthesia ± SEM: thiopental
Source text: The pilot biological studies for imides 9 and 11 were supplemented with the determination of the effect of the intraperitoneal administration of the test compounds on the duration of thiopental-induced sleep. The mechanism and the degree of crossing the blood–brain barrier has not been precisely defined. The observed sedative effects may indicate good penetration of compounds into the central nervous system, which, however, has not been confirmed.
as §2

mice [5] = experiment: “Hot plate” test in mice; conditions: hot plate, mice
Procedure: as §1, §2, §3, §4
Animals were placed individually on the metal plate, heated to 55 ± 1 °C. The latency time (s) to the pain reaction (licking of the hind paws or jumping) was recorded by a stop-watch. A cutoff time of 45 s was used to prevent tissue damage.

[6] = Mus musculus, ip, dose 25 mg/kg, read-out: Degree of motor inhibition (%)
[7] = Mus musculus, ip, dose 50 mg/kg, read-out: Degree of motor inhibition (%)
[8] = Mus musculus, ip, 0.5 h, dose 100 mg/kg, read-out: Prolonged Time (%)
[9] = Mus musculus, ip, 0.5 h, dose 200 mg/kg, read-out: Prolonged Time (%)
[10] = Mus musculus, ip, dose 100 mg/kg, read-out: Degree of motor inhibition (%)
[11] = Mus musculus, ip, dose 200 mg/kg, read-out: Degree of motor inhibition (%)

## COc1nc(C)cc2c1C(=O)N(CCN1CCN(c3ccccc3)CC1)C2=O [Compound 9]
Mice [1]; Mus musculus, ip
  ED50: 18.8 mg/kg
Mice [1]; Mus musculus, ip, dose 4.68 mg/kg, read-out: Degree of motor inhibition (%)
  inhibition at 4.68 mg/kg: 22.6%
Mice [1]; Mus musculus, ip, dose 9.37 mg/kg (Table 9), read-out: % Inh. of locomotor activity
  inhibition at 9.37 mg/kg: 42.8%
Mice [1]; Mus musculus, ip, dose 18.75 mg/kg, read-out: Degree of motor inhibition (%)
  inhibition at 18.75 mg/kg: 45.9%
Mice [1]; Mus musculus, ip, dose 37.5 mg/kg, read-out: Degree of motor inhibition (%)
  inhibition at 37.5 mg/kg: 67.2%
Mice [1]; dose 18.75 mg/kg
  Number of impulses ± SEM (30min): 244 ± 45
Mice [1]; dose 37.5 mg/kg
  Number of impulses ± SEM (30min): 148 ± 32
Mice [1]; dose 93.75 mg/kg (as printed in Table S2)
  Number of impulses ± SEM (30min): 258 ± 47.4
Mice [2]
  analgesic ED50 as fraction of LD50: ≈ 1/408
In vivo
  LD50 at 24 h: 1500 mg/kg
Mice [3]
  ED50: 3.25 mg/kg
  ED50 (mg/kg) ± SEM, writhing test: 3.67 mg/kg
Mice [3]; dose 4.68 mg/kg
  Mean no. of writhing ± SEM: 22.0 ± 4.6
Mice [3]; dose 9.375 mg/kg
  Mean no. of writhing ± SEM: 9.8 ± 1.8
Mice [3]; dose 18.75 mg/kg
  Mean no. of writhing ± SEM: 5.0 ± 2.0
Mice [3]; dose 37.5 mg/kg
  Mean no. of writhing ± SEM: 1.2 ± 0.7
Mice [4]; dose 9.375 mg/kg
  Prolongation (%) of thiopental anesthesia: 34.8%
  Duration of Anesthesia ± SEM: 69.4 ± 12 min
Mice [4]; dose 18.75 mg/kg
  Prolongation (%) of thiopental anesthesia: 96.5 * % and 96.5%
  Duration of Anesthesia ± SEM: 101.2 ± 28.4 min
Mice [4]; dose 37.5 mg/kg
  Prolongation (%) of thiopental anesthesia: 157.1 ** % and 157.1%
  Duration of Anesthesia ± SEM: 132.4 ± 27.8 min
Mice [4]
  effect on duration of thiopental anesthesia (in words): extended the duration of thiopental anesthesia
Mice [5]; Mus musculus, ip, 0.5 h, dose 75 mg/kg, read-out: Prolonged Time (%)
  change in vivo at 75 mg/kg: 55%
Mice [5]; Mus musculus, ip, 0.5 h, dose 150 mg/kg, read-out: Prolonged Time (%)
  change in vivo at 150 mg/kg: 102%
Mice [5]; Mus musculus, ip, 0.5 h, dose 300 mg/kg, read-out: Prolonged Time (%)
  change in vivo at 300 mg/kg: 105%
Mice [5]; dose 75 mg/kg
  Time of Reaction to Pain Stimulus (s) ± SEM: 30.3 ± 2.7 s
Mice [5]; dose 150 mg/kg
  Time of Reaction to Pain Stimulus (s) ± SEM: 39.2 ± 5 s
Mice [5]; dose 300 mg/kg
  Time of Reaction to Pain Stimulus (s) ± SEM: 40.0 ± 4.4 s

## COc1ccccc1N1CCN(CCN2C(=O)c3cc(C)nc(OC)c3C2=O)CC1 [Compound 11]
Mice [1]; Mus musculus, ip
  ED50: 19.7 mg/kg
Mice [1]; Mus musculus, ip, dose 6.25 mg/kg, read-out: Degree of motor inhibition (%)
  inhibition at 6.25 mg/kg: 28.2%
Mice [1]; Mus musculus, ip, dose 12.5 mg/kg, read-out: Degree of motor inhibition (%)
  inhibition at 12.5 mg/kg: 55.4%
Mice [1]; [6]
  inhibition at 25 mg/kg: 55.9%
Mice [1]; [7]
  inhibition at 50 mg/kg: 68.7%
Mice [1]; dose 6.25 mg/kg
  Number of impulses ± SEM (30min): 324 ± 49
Mice [1]; dose 12.5 mg/kg
  Number of impulses ± SEM (30min): 201 ± 74
Mice [1]; dose 25 mg/kg
  Number of impulses ± SEM (30min): 199.1 ± 48
Mice [1]; dose 50 mg/kg
  Number of impulses ± SEM (30min): 141 ± 63
In vivo
  LD50 at 24 h: > 2000 mg/kg
Mice [3]
  ED50: 3.67 mg/kg
  ED50 (mg/kg) ± SEM, writhing test: 3.25 mg/kg
Mice [3]; dose 3.125 mg/kg
  Mean no. of writhing ± SEM: 17.7 ± 2.4
Mice [3]; dose 6.25 mg/kg
  Mean no. of writhing ± SEM: 6.0 ± 2.8
Mice [3]; dose 12.5 mg/kg
  Mean no. of writhing ± SEM: 4.3 ± 1.1
Mice [3]; dose 50 mg/kg
  Mean no. of writhing ± SEM: 1.4 ± 0.6
Mice [4]; dose 12.5 mg/kg
  Prolongation (%) of thiopental anesthesia: 36.3%
  Duration of Anesthesia ± SEM: 70.2 ± 24 min
Mice [4]; dose 25 mg/kg
  Prolongation (%) of thiopental anesthesia: 16.11%
  Duration of Anesthesia ± SEM: 50.8 ± 14.2 min
Mice [4]; dose 50 mg/kg
  Prolongation (%) of thiopental anesthesia: 140.8 *** % and 140.8%
  Duration of Anesthesia ± SEM: 124 ± 16.2 min
Mice [4]
  effect on duration of thiopental anesthesia (in words): extended the duration of thiopental anesthesia
Mice [5]; [8]
  change in vivo at 100 mg/kg: 23%
Mice [5]; [9]
  change in vivo at 200 mg/kg: 50.7%
Mice [5]; Mus musculus, ip, 0.5 h, dose 400 mg/kg, read-out: Prolonged Time (%)
  change in vivo at 400 mg/kg: 105%
Mice [5]; dose 100 mg/kg
  Time of Reaction to Pain Stimulus (s) ± SEM: 24.0 ± 5.0 s
Mice [5]; dose 200 mg/kg
  Time of Reaction to Pain Stimulus (s) ± SEM: 29.4 ± 5.0 s
Mice [5]; dose 400 mg/kg
  Time of Reaction to Pain Stimulus (s) ± SEM: 40.0 ± 8.5 s

## CCOc1nc(C)cc2c1C(=O)N(CN1CCN(c3cccc(Cl)c3)CC1)C2=O [Compound 14]
Mice [1]; Mus musculus, ip
  ED50: 98 ± 13.3 mg/kg
Mice [1]; [6]
  inhibition at 25 mg/kg: 10.7%
Mice [1]; [7]
  inhibition at 50 mg/kg: 3.5%
Mice [1]; [10]
  inhibition at 100 mg/kg: 52.4%
Mice [1]; [11]
  inhibition at 200 mg/kg: 66%
Mice [1]; dose 25 mg/kg
  Number of impulses ± SEM (30min): 394 ± 70
Mice [1]; dose 50 mg/kg
  Number of impulses ± SEM (30min): 280 ± 46
Mice [1]; dose 100 mg/kg
  Number of impulses ± SEM (30min): 210 ± 40
Mice [1]; dose 200 mg/kg
  Number of impulses ± SEM (30min): 150 ± 48
In vivo
  LD50 at 24 h: > 2000 mg/kg
Mice [3]
  ED50: 18.4 mg/kg
Mice [3]; dose 12.5 mg/kg
  Mean no. of writhing ± SEM: 15.1 ± 4.2
Mice [3]; dose 25 mg/kg
  Mean no. of writhing ± SEM: 9.1 ± 0.8
Mice [3]; dose 50 mg/kg
  Mean no. of writhing ± SEM: 5.9 ± 1.9
Mice [3]; dose 100 mg/kg
  Mean no. of writhing ± SEM: 1.8 ± 0.3
Mice [5]; [8]
  change in vivo at 100 mg/kg: 2.32%
Mice [5]; [9]
  change in vivo at 200 mg/kg: 16.8%
Mice [5]; dose 100 mg/kg
  Time of Reaction to Pain Stimulus (s) ± SEM: 17.6 ± 2.4 s
Mice [5]; dose 200 mg/kg
  Time of Reaction to Pain Stimulus (s) ± SEM: 20.1 ± 2.3 s

## COc1nc(C)cc2c1C(=O)N(CN1CCN(c3ccccc3Cl)CC1)C2=O [Compound 15]
Mice [1]; Mus musculus, ip
  ED50: 89.1 ± 4.46 mg/kg
Mice [1]; [6]
  inhibition at 25 mg/kg: 9.52%
Mice [1]; [7]
  inhibition at 50 mg/kg: 42.6%
Mice [1]; [10]
  inhibition at 100 mg/kg: 54%
Mice [1]; [11]
  inhibition at 200 mg/kg: 65.5%
Mice [1]; dose 25 mg/kg
  Number of impulses ± SEM (30min): 399 ± 71
Mice [1]; dose 50 mg/kg
  Number of impulses ± SEM (30min): 253 ± 48
Mice [1]; dose 100 mg/kg
  Number of impulses ± SEM (30min): 203 ± 39
Mice [1]; dose 200 mg/kg
  Number of impulses ± SEM (30min): 152 ± 34
In vivo
  LD50 at 24 h: > 2000 mg/kg
Mice [3]
  ED50: 19.2 ± 2.14 mg/kg
Mice [3]; dose 12.5 mg/kg
  Mean no. of writhing ± SEM: 17.2 ± 3.2
Mice [3]; dose 25 mg/kg
  Mean no. of writhing ± SEM: 9.4 ± 2.2
Mice [3]; dose 50 mg/kg
  Mean no. of writhing ± SEM: 2.9 ± 1.9
Mice [3]; dose 100 mg/kg
  Mean no. of writhing ± SEM: 1.4 ± 0.4
Mice [5]; [9]
  change in vivo at 200 mg/kg: 15.7%
Mice [5]; dose 100 mg/kg
  Time of Reaction to Pain Stimulus (s) ± SEM: 17.0 ± 2.8 s
Mice [5]; dose 200 mg/kg
  Time of Reaction to Pain Stimulus (s) ± SEM: 19.9 ± 3.9 s
